Experimental findings from patent publication EP4585599A1, “NITROGEN-CONTAINING FUSED RING COMPOUND, INTERMEDIATE THEREOF, PREPARATION METHOD THEREFOR AND USE THEREOF” (Hangzhou Synrx Therapeutics Biomedical Technology Co., Ltd., priority 2022, dated 2024) are described below.

≈ marks a conversion by molar mass, not a printed value. Where “and” joins values, the source holds several entries; their conditions need not be identical. Equal entries are not always repeated. Where two headings read alike, the source gives them in different places. Bounds are passed on as bounds.

Series [1] addresses T1, helicase domain of the Pol θ protein (Homo sapiens, UniProt O75417).
T1 construct: The helicase domain of the Pol θ protein was purified from insect protein expression system; made in house; host or cells: insect protein expression system
Put plainly: Biochemical Activity Assay (ADP Glo Assay) of Pol θ inhibitor, ATPase activity. For orientation: ADP-Glo turns the ADP formed in a reaction into a luminescent signal.

The nature of a further series: Solubility assay. As to conditions: phosphate buffer, pH 7.4, aqueous buffer, kinetic from dmso stock.
The nature of a further series: cells. The settings on record: Homo sapiens, DLD-1, 240 h.
Series [2] can be described thus: Mouse PK assay after oral administration. The settings on record: for MRT / half-life: male, ICR, mouse, po; for MRT / half-life / Area under curve (0-t; hr * ng/mL) / Peak concentration: plasma; for Time to peak / Area under curve (0-t; hr * ng/mL) / Peak concentration: mice, oral.
Method: The objective of this experiment was to study the pharmacokinetics of the test compound in ICR mice (male, 18-22 g, 4-6 weeks old, Beijing Vital River Laboratory Animal Technology Co., Ltd.) after oral administration. The specific experimental procedures were as follows: • 1) The compound was dissolved in 5% DMSO + 40% PEG + 20% (10% TPGS) in water + 35% water at a concentration of 0.5 mg/mL, and then administered orally (5 mL/Kg); and • 2) Blood samples were collected, with 0.03 mL collected at 0.25 h, 0.5 h, 1 h, 2 h, 4 h, 8 h, and 24 h, and EDTA-K2 was added. […] The blood was centrifuged for 5 min at 4000 g in a centrifuge at 4°C to collect plasma. Plasma samples were aliquoted into clean polyethylene microcentrifuge tubes and then stored in a freezer at -75 ± 15°C before analysis; and • 3) Samples were analyzed, and the concentration of the compound in each plasma sample was analyzed by LC-MS/MS. For plasma measurements, pharmacokinetic parameters were calculated using WinNonlin (PhoenixTM, version 8.3) or other similar software.
A further series can be described thus: in vitro. The settings on record: mouse, microsomes, pH 7.4.
For series [3] the following is noted: read-out: Cell viability assay IC50.
Where [4] appears, read: ADP-Glo assay, ATPase activity of Pol θ helicase domain, ssDNA substrate, read-out: Biochemical assay IC50.
The mark [5] stands for this setting: read-out: Cell viability assay IC50 (nM), CTG assay, CellTiter Glo, read on Day 10, cell line not given.
[6] abbreviates: read-out: Cell viability assay IC50 (nM), CTG on Day 10, cell line not given (method: DLD1 and DLD1^-/- cells).
Setting [7] is: ADP-Glo, ssDNA substrate, 60 min at room temperature, read-out: Biochemical assay IC50.
Where [8] appears, read: read-out: Cell viability assay IC50 (nM).
The mark [9] stands for this setting: CTG on Day 10, cell line not given (method: DLD1 and DLD1^-/- cells).
Where [10] appears, read: Biochemical assay IC50 (nM), ADP-Glo assay, ATPase activity of Pol θ helicase domain, ssDNA substrate.
Setting [11] is: Biochemical assay IC50 (nM), ADP-Glo, ssDNA substrate, 60 min at room temperature.
[12] abbreviates: read-out: Biochemical assay IC50.

T1 sequence (O75417 102-554 limits assumed): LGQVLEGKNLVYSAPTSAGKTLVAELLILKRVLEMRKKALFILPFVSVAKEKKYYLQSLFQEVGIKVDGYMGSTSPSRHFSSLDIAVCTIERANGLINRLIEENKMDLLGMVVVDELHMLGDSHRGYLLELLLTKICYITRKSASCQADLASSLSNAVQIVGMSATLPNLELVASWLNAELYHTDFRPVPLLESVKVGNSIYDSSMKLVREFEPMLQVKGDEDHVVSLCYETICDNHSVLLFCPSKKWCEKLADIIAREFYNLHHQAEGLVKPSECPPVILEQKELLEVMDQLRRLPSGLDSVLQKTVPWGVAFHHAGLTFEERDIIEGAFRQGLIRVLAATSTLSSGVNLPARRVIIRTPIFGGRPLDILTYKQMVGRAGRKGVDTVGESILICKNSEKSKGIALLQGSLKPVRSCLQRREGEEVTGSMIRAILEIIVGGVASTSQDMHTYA
Method for Solubility assay: 1) Prepare 0.1 M Na2PO4 buffer (pH 7.4): 11 g of Na2HPO4 (FW: 141.96) and 3.5 g of NaH2PO4_2H2O (FW: 156.03) were added to 1L of Mili-Q water, with pH adjusted to 7.4 using phosphoric acid or sodium hydroxide. 2) 10 µL of the compound to be tested (concentration: 10 mM in DMSO) was added to 990 µL of Na2PO4 buffer (final DMSO concentration: 1%) prepared in Step 1). 3) The sample tube was shaken at room temperature for 2 hours (1000 rpm/min). 4) Prepare the calibration curve: a) Prepare 300 µM spiking solution (SS): 6 µL (10 mM in DMSO) of the stock solution of the compound to be tested was added to 194 µL of MeOH/ACN (4:1); and b) Draw the standard curve.
5) The samples were centrifuged (10 min, 12,000 rpm) to precipitate insoluble particles. The supernatant was filtered with a 0.22 µm filter membrane, and then transferred to a new centrifuge tube. 6) The supernatant was diluted 10-fold with 100 mM buffer. The supernatant (10 µL) was added to the buffer (100 mM, 90 µL) and diluted 10-fold. 7) The sample was prepared under LC-MS/MS (API 4000) detection.
10 µL of the sample (10-fold dilution) and a standard curve sample were added to 400 µL of (MeOH: ACN=1:1) solution, and detected on the instrument, and the solubility value was calculated according to the standard curve.
Method for in vitro: a) Phosphate buffer solution (PBS): 100 mM, pH=7.4±0.1.
73.21 g of dipotassium phosphate trihydrate K2HPO4·3H2O (MW=228.22) and 10.78 g of potassium dihydrogen phosphate KH2PO4 (MW=136.09) were dissolved in 4000 mL of pure water, with pH adjusted to 7.4 ± 0.1 using phosphoric acid or potassium hydroxide.
b) Microsome working solution: 1.0 mg/mL.
The purchased mouse liver microsomes (IPHASE, Cat. No.: 0121E1.01, Lot. No.: 22F001) were of 20 mg/mL (10 mg, 0.5 mL), with 225 µL added to 4275 µL of PBS solution to prepare 1.0 mg/mL microsome working solution.
(Note whether the precipitation occurred) • III, 200 µL of the 40 mM NADPH stock solution, 2.0 mL of the 12 mM magnesium chloride stock solution, and 1.80 mL of the PBS solution were used to prepare the working solution of the NADPH regeneration system, containing the 2 mM NADPH solution and the 6 mM magnesium chloride mixture.
d) Stop solution: containing 200 ng/mL tolbutamide acetonitrile solution. • I, 6.006 mg of tolbutamide (MV=270.35, 99.9%) solids were weighed, and 30 mL of acetonitrile was added to prepare the 200 µg/mL of tolbutamide stock solution. • II, 500 mL of acetonitrile was added to 500 µL of the 200 µg/mL tolbutamide stock solution to obtain the tolbutamide acetonitrile solution with a concentration of 200 ng/mL.
e) Test sample/reference working solution: 100 µM test sample/reference working solution • I, 1 mL of 1.0 mg/mL testosterone (MV=288.42) solution was purchased, and 155.8 µL of ACN was added to prepare a testosterone stock solution with a concentration of 3 mM. • II, 1450 µL of acetonitrile was added to 50 µL of the 3 mM testosterone stock solution to prepare the 100 µM testosterone working solution. • III, 6.98 mg of propafenone hydrochloride was weighed, and 1.8433 mL of acetonitrile was added to dissolve the propafenone hydrochloride; and 5.67 mg of diclofenac sodium was weighed, and 1.783 mL of acetonitrile was added to dissolve the diclofenac sodium. 10 mM propafenone stock solution and 10 mM diclofenac stock solution were prepared respectively. • IV, 10 µL of the propafenone stock solution and 10 mL of the diclofenac stock solution were each added with 990 µL of acetonitrile to prepare 100 µM propafenone working solution and 100 µM diclofenac working solutions.
• a) 8 incubation plates were prepared, named T0, T5, T15, T30, T45, T60, Blank60 and NCF60, respectively. • b) 100 µL of microsome working solution was added to each of T0, T5, T15, T30, T45, T60, Blank60 and NCF60; 2 µL of the test (reference) working solution was added to each of T0, T5, T15, T30, T45, T60 and NCF60; and 2 µL of acetonitrile was added to Blank60. • c) T5, T15, T30, T45, T60, and Blank60 were pre-incubated in a 37°C water bath for 10 minutes. • d) 600 µL of the stop solution was added to the sample T0 to stop the reaction; and 98 µL of phosphate buffer solution (PBS) was added to NCF60, and NCF60 samples without the NADPH regeneration system were taken as negative control. • e) 98 µL of the working solution of the NADPH regeneration system was supplemented to the sample T0 that is stopped in the previous step; and after pre-incubation, 98 µL of the working solution of the NADPH regeneration system was added to each of T5, T15, T30, T45, T60, and Blank60 to initiate the reaction.

Regarding `COc1ccc(Cl)cc1-c1cc(C)ncc1C(=O)Nc1nc2ncc(-c3ccc(C#N)cc3)nc2s1` [Comparative Example 1, reference compound], in series [1] (setting [4]), the half-inhibitory concentration (IC50) (in general, the point on the concentration scale where inhibition reaches its midpoint) was 6.91 nM. For the same compound, the concentration in solution in the series “Solubility assay” (solubility at 2 h) came to 2.35 µM (≈ 1.21 µg/mL).

As to `COc1cnc(Cl)cc1-c1cc(C)ncc1C(=O)Nc1nc2cnc(C3=CCC(O)CC3)cc2s1` (stereo not drawn) [Example 11], the IC50 in “cells” (setting [5]) was 11.2 nM. Further, the IC50 in “cells” (setting [6]) was less than 100 nM. Besides, in series [2] (25 mg/kg), the mean residence time MRT – broadly, the average time that molecules of a dose stay in the body – is 3.15 h and the half-life (commonly the time needed for the level to fall by half in the phase considered) is 2.19 h. In series [2] (administration dose 25 mg/kg), the “Time to peak” value amounted to 0.83 h, the “Area under curve (0-t; hr * ng/mL)” value was 26324 ng·h/mL and the “Peak concentration” value is 7407 ng/mL. The IC50 in series [1] (setting [4]) worked out at 3.11 nM. The IC50 in series [1] (setting [7]) is less than 50 nM. The amount in solution in “Solubility assay” (solubility at 2 h) came to 76.4 µM (≈ 38.8 µg/mL). In “in vitro”, the half-life at 1 µM came to 3.75 h.

Turning to `COc1cnc(Cl)cc1-c1cc(C)ncc1C(=O)Nc1nc2ncc([C@H]3CC[C@@H](O)CC3)cc2s1` [Example 26, 2'-chloro-N-(6-((1s, 4s)-4-hydroxycyclohexyl)thiazolo[4,5-b]pyridin-2-yl)-5'-methoxy-6-methyl-[4,4'-bipyridine]-3-carboxamide], the half-inhibitory concentration (IC50) is 100 to 500 nM in “cells” (setting [8]); < 50 nM and 5.69 nM in series [1] (Biochemical assay IC50 (nM)); 158 nM in series [3].

`COc1cnc(Cl)cc1-c1cc(C)ncc1C(=O)Nc1nc2ncc([C@H]3CC[C@H](O)CC3)cc2s1` [Example 27, 2'-chloro-N-(6-((1r, 4r)-4-hydroxycyclohexyl)thiazolo[4,5-b]pyridin-2-yl)-5'-methoxy-6-methyl-[4,4'-bipyridine]-3-carboxamide]: the IC50 is 500 to 1000 nM in “cells” (setting [8]); < 50 nM and 10.3 nM in series [1] (Biochemical assay IC50 (nM)); 736 nM in series [3].

Regarding `COc1cnc(Cl)cc1-c1cc(C)ncc1C(=O)Nc1nc2ccc([C@H]3CC[C@@H](O)CC3)nc2s1` [Example 28], the half-inhibitory concentration (IC50) in “cells” (setting [8]) is 100 to 500 nM; in series [1] (setting [4]), 12.1 nM; in series [1] (setting [7]), less than 50 nM; in series [3] it was 178 nM.

On to `COc1cnc(Cl)cc1-c1cnccc1C(=O)Nc1nc2ccc([C@H]3CC[C@@H](O)CC3)nc2s1` [Example 33], for which the concentration for half-maximal inhibition (IC50) in “cells” (setting [8]) was 100 to 500 nM; in series [1] (setting [4]), 24.9 nM; in series [1] (setting [7]), less than 50 nM; in series [3], 171 nM.

On to `COc1cnc(Cl)cc1-c1cc(C)ncc1C(=O)Nc1nc2c(s1)CNCC2` [Example 41, 2'-chloro-5'-methoxy-6-methyl-N-(4,5,6,7-tetrahydrothiazol[5,4-c]pyridin-2-yl)-[4,4'-bipyridine]-3-carboxamide], for which the results for the concentration for half-maximal inhibition (IC50) in series [1] (setting [4]), in series [1] (setting [7]) and in series [3] (setting [9]) were 1240 nM, greater than 500 nM and greater than 1000 nM, respectively.

Turning to `COc1cnc(Cl)cc1-c1cc(C)ncc1C(=O)Nc1nc2c(s1)CN(C1CCC(O)CC1)CC2` (stereo not drawn) [Example 42, 2'-chloro-N-(5-(4-hydroxycyclohexyl)-4,5,6,7-tetrahydrothiazol[5,4-c]pyridin-2-yl)-5'-m ethoxy-6-methyl-[4,4'-bipyridine]-3-carboxamide], the IC50 in series [1] (setting [4]) was 200 nM; in series [1] (setting [7]) it was 200 to 500 nM; in series [3] (setting [9]) it was greater than 1000 nM.

On to `COc1cnc(Cl)cc1-c1cc(C)ncc1C(=O)Nc1nc2ccc(N3CCOCC3)cc2s1` [Example 45, 2-chloro-5-methoxy-6-methyl-N-(6-morpholinylbenzothiazol-2-yl)-4, 4'-bipyridin-3-car boxamide], for which the half-maximal inhibitory concentration (IC50) in the series “cells” (setting [8]) is 100 to 500 nM; in series [1] (setting [10]), 25.4 nM; in series [1] (setting [11]), less than 50 nM; in series [3] it was 141 nM.

Regarding `COc1cnc(Cl)c(F)c1-c1cc(C)ncc1C(=O)Nc1nc2c(s1)CN(C(=O)C1CCOC1)CC2` (stereo not drawn) [Example 54, 2'-chloro-3'-fluoro-5'-methoxy-6-methyl-N-(5-(tetrahydrofuran-3-carbonyl)-4,5,6,7-tetrahydrothiazol[5,4-c]pyridin-2-yl)-[4,4'-bipyridine]-3-carboxamide], the concentration for half-maximal inhibition (IC50) was 500 to 1000 nM in the series “cells” (setting [8]); < 50 nM and 40.6 nM in series [1] (Biochemical assay IC50 (nM)); 794 nM in series [3].

Turning to `COc1cnc(Cl)cc1-c1cc2cnc(C)n2cc1C(=O)Nc1nc2ccc(C3=CCC(O)CC3)nc2s1` (stereo not drawn) [Example 55, 7-(2-chloro-5-methoxypyridin-4-yl)-N-(5-(4-hydroxycyclohex-1-en-1-yl)thiazol[5,4-b]pyridin-2-yl)-3-methylimidazol[1,5-a]pyridin-6-carboxamide], the IC50 is 100 to 500 nM in “cells” (setting [8]); < 50 nM and 28.7 nM in series [1] (Biochemical assay IC50 (nM)); 112 nM in series [3].

With `COc1cnc(Cl)cc1-c1cc(C)ncc1C(=O)Nc1nc2ncc(N3CCC(O)CC3)nc2s1` [Example 70], the half-maximal inhibitory concentration (IC50) in “cells” (setting [5]) stood at 14.2 nM. The concentration for half-maximal inhibition (IC50) in the series “cells” (setting [6]) is less than 100 nM. Further, in series [2] (100 mg/kg), the MRT worked out at 2.2 h and the half-life was 2.91 h. For the same compound, in series [2] (administration dose 100 mg/kg), the “Time to peak” value is 0.5 h, the “Area under curve (0-t; hr * ng/mL)” value amounted to 60434 ng·h/mL and the “Peak concentration” value is reported as 22767 ng/mL. Further, the half-maximal inhibitory concentration (IC50) in series [1] (setting [4]) came out at 2.73 nM. Moreover, the IC50 in series [1] (setting [7]) is less than 50 nM. Further, in the series “Solubility assay”, the concentration in solution (solubility at 2 h) came to 70.6 µM (≈ 36.1 µg/mL). In addition, the half-life at 1 µM in “in vitro” was determined as 8.88 h.

Regarding `COc1cnc(Cl)cc1-c1cc(C)ncc1C(=O)Nc1nc2cnc(-c3c(C)cnn3C)cc2s1` [Example 87], the IC50 in “cells” (setting [5]) was 6.81 nM. Besides, the half-inhibitory concentration (IC50) in the series “cells” (setting [6]) is less than 100 nM. Also, in series [2] (100 mg/kg), the mean residence time (MRT) is 3.45 h and the half-life is 2.12 h. Also, in series [2] (administration dose 100 mg/kg), the “Time to peak” value came out at 0.25 h, the “Area under curve (0-t; hr * ng/mL)” value turned out to be 300735 ng·h/mL and the “Peak concentration” value is 74833 ng/mL. In series [1] (setting [4]), the half-inhibitory concentration (IC50) worked out at 1.91 nM. Further, the IC50 in series [1] (setting [7]) was less than 50 nM. Besides, in the series “Solubility assay”, the concentration in solution (solubility at 2 h) was 79.7 µM (≈ 40.3 µg/mL). In “in vitro”, this compound showed a half-life at 1 µM of 14.4 h.

For the compound `COc1cnc(Cl)cc1-c1cc(C)ncc1C(=O)Nc1nn2cc(-c3ccccn3)nc2s1` [Example 97, 2'-chloro-5'-methoxy-6-methyl-N-(6-(pyridin-2-vyl)imidazol[2,1-b][1,3,4]thiadiazol-2-yl)-[4,4'-bipyridine]-3-carboxamide], the 50% inhibitory concentration (IC50) in the series “cells” (setting [8]) is greater than 1000 nM; in series [1] (Biochemical assay IC50 (nM)) it was < 50 nM and 26.4 nM; in series [3], 1210 nM.

Consider `[2H]C([2H])([2H])c1cc(-c2cc(Cl)ncc2OC)c(C(=O)Nc2nc3ccc(N4CCC(O)CC4)nc3s2)cn1` [Example 109], for which the IC50 in “cells” (setting [8]) is less than 100 nM; in series [1] (setting [10]) it was 6.71 nM; in series [1] (setting [11]), less than 50 nM; in series [3], 147 nM.

Regarding `COc1cnc(Cl)c(F)c1-c1cc(C)ncc1C(=O)Nc1nc2ccccc2s1` [Examples 39], the IC50 in the series “cells” (setting [8]) is 100 to 500 nM; in series [1] (setting [12]) it was < 50 nM and 8.57 nM; in series [3], 108 nM.

For the compound `COc1cnc(Cl)cc1-c1cc(C)ncc1C(=O)Nc1nc2ccc(C3(O)CCC(O)CC3)cc2s1` (stereo not drawn) [Examples 89], the IC50 was 100 to 500 nM in “cells” (setting [8]); < 50 nM and 36.7 nM in series [1] (setting [12]); 171 nM in series [3].
